Laboratory results reported in a melting point compilation (Tetko et al.; mined from patent text by program, amines drawn as free bases though some values may be those of a salt).

| SMILES | melting point [°C] |
| --- | --- |
| CC(CC[Si](CCC(C)[N+](=O)[O-])(c1ccccc1)c1ccccc1)[N+](=O)[O-] (centres undefined) | 84 to 85 |
| COc1cc(-c2cc(C(F)(F)F)nn2-c2ccc(S(C)(=O)=O)cc2)ccc1-c1cocn1 | 171 to 173 |
| CN(C)C(=O)Oc1ccc2c(c1)[nH]c(=O)c1c3ccc(OC(=O)N(C)C)cc3oc21 | 255 to 269 |
| CCNC(=S)NNC(=O)OC | 117 |
| CCC(=O)NC1=NN(c2ccccc2)C(C)C1 (centres undefined) | 96 to 96.5 |
| C#CCC1(c2ccccc2)Cc2cc(OCC(=O)O)c(Cl)c(Cl)c2C1=O (centres undefined) | 236 to 240 |
| CCOC(=O)C1=C(C)NC(C)=C(C(=O)OCCN2CCN(C(c3ccccc3)c3ccccc3)CC2)C1c1cccc(Cl)c1Cl (centres undefined) | 87 to 89 |
| O=C1COc2cc(NC(=O)C(=O)N3CCC(C(O)c4ccccc4)CC3)ccc2N1 (centres undefined) | 195 to 197 |
| O=c1[nH]c(-c2csc3ccccc23)nc2ccc(N3CCCCC3)cc12 | > 300 |
| COc1cc(N)c2nccc(C)c2c1F | 126 to 128 |
| CCn1c(=O)n(CC(C)(C)O)c(=O)c2[nH]cnc21 | 217 to 219 |
| Nc1ncnc2c1c(-c1ccc(Oc3ccccc3)cc1)cn2C1CCC2(CC1)OCCO2 | 193 to 194 |
| COc1cc2occ(C(=O)Nc3cccnc3)c2cc1C(F)(F)F | 219 to 221 |
| C#CCOCc1nnc(Nc2ccc3c(c2)ncn3-c2ccccc2)c2ccccc12 | 89 to 91 |
| COC(=O)c1ccc(C(=O)Nc2nc(-c3cccc(C)c3)c(-c3ccncn3)s2)cc1 | 339 to 341 |
| CC(C)n1nc(-c2cc(C(=O)N3CCN(C)CC3)cnc2-c2ccccc2)ccc1=O | 165 to 166 |
| C=C1N(CCC)C(=O)OC12CCN(CC=C(c1ccccc1)c1ccccc1)CC2 | 126 to 127 |
| CCOC(=O)c1cc(OCc2ccccc2)c2nc(C3CC3)n(C)c2c1 | 120 |
| Cn1cnc2nc(NC(=O)c3ccccc3)nn2c1=S | 273 to 276 |
| CCc1cc(C=O)c2ccc3cccc4ccc1c2c34 | 134 to 136 |

| SMILES | melting point [°C] |
| --- | --- |
| CC1(C)CC(NC(=O)c2ccc(-c3cc4cc(Cl)c(Cl)cc4[nH]3)c(O)c2)CC(C)(C)N1 | > 270 |
| Cc1ccccc1-c1cc(N2CCC(O)CC2)ncc1C(=O)N(C)Cc1cc(C(F)(F)F)cc(C(F)(F)F)c1 | 150 to 152 |
| Cc1nc(C)nc(NC(=O)NS(=O)(=O)c2ccccc2Cl)n1 | 115 to 118 |
| O=S(=O)(CCCCl)Nc1ccc(N2CCN(c3ccc(OCC(O)(Cn4cncn4)c4ccc(Cl)cc4Cl)cc3)CC2)cc1 (centres undefined) | 80 to 81 |
| CCOC(=O)c1c[nH]c2nc(-c3ccncc3)c(F)cc2c1=O | 280 to 285 |
| COc1cc(OC)cc(C(=O)N2CCc3cc(OCc4ccccc4)c(OC)cc3C2)c1 | 130 to 131 |
| CCOc1ccc(C(=O)NCc2ccc3c(c2)CN(C2CCC(=O)NC2=O)C3=O)cc1 (centres undefined) | 269 to 271 |
| COc1ccc(C2(c3nc(N)nc(N)n3)CCCCC2)cc1 | 159 to 163 |
| COc1ccnc(CSc2nc3cc4c(cc3[nH]2)OC(F)(F)O4)c1 | 151 to 152 |
| CNC(=O)CCCc1cncc2ccc(OC)cc12 | 117 to 119 |
| CC(C)N1CC2(COc3ccccc3OC2)OC1=O | 118 to 120 |
| CCOC(=O)c1nc(N)sc1-c1nc2ccccn2c1C | 180 to 182 |
| COCc1cc(OCc2ccccc2)c2nc(C)c(C)n2c1 | 107 |
| COC(=O)c1ccc2[nH]cc(C(C)=O)c2c1 | 235 to 236 |
| N#CCCC(CCC#N)(CCC#N)[N+](=O)[O-] | 114 |
| CC(=O)NC(C)(C)c1ccc(CCl)cc1 | 101 to 103 |
| N#Cc1ccc2c(c1)S(=O)(=O)c1ccccc1C=C2 | 229 to 231 |
| Nc1cc(Br)c(Br)cc1N | 189 to 190 |
| COC(=O)Cc1ccc(CNC(=O)C2Cc3ccccc3N2S(=O)(=O)c2ccc(-c3cccc(C(F)(F)F)c3)cc2)cc1C (centres undefined) | 60 to 67 |
